Measured values published in DBAASP.
In brackets after ≈: the same amount, converted by molar mass. Several values for one entry are separate records, joined by “and”; a condition that tells them apart may be missing. Identical values can stand only once. Blank lines part the entries; values can stand above or below the compound they belong to.

How the values were obtained:
Assay in all cases: ≥ marks a high value that may be exact or a test limit, other limits are often not marked, values filed in µg/mL are converted to µM
[1] = system: Candida albicans NCPF 1467
[2] = system: Staphylococcus aureus NCTC 10788
[3] = system: Escherichia coli NCTC 10418
[4] = system: Escherichia coli ATCC 2592
[5] = system: Micrococcus luteus ATCC 9341
[6] = system: Staphylococcus aureus
[7] = system: Staphylococcus aureus ATCC 6538
[8] = system: Pseudomonas aeruginosa ATCC 9027
[9] = system: Candida albicans ATCC 36232
[10] = system: Proteus vulgaris ATCC 6380
[11] = system: Salmonella enterica subsp. enterica serovar Typhimurium ATCC 14028
[12] = system: Staphylococcus aureus ATCC 29213
[13] = system: Lactiplantibacillus plantarum 8014
[14] = system: Staphylococcus epidermidis ATCC 12228
[15] = system: Candida albicans CGMCC 2.2086
[16] = system: Staphylococcus aureus ATCC 25923
[17] = system: Salmonella enterica subsp. enterica serovar Typhimurium C77-31
[18] = system: Candida parapsilosis CGMCC 2.3989
[19] = system: Candida tropicalis CGMCC 2.1975
[20] = system: Lacticaseibacillus rhamnosus 7469
[21] = system: Staphylococcus aureus JE2
[22] = system: Escherichia coli ATCC 25922
[23] = system: Pseudomonas aeruginosa PAO1
[24] = system: Klebsiella pneumoniae ATCC 13883
[25] = system: Klebsiella pneumoniae E406-17
[26] = system: Staphylococcus aureus M838-17
[27] = system: Staphylococcus aureus USA 300 LAC
[28] = system: Pseudomonas aeruginosa E411-17
[29] = system: Escherichia coli J2210
[30] = system: Escherichia coli BW25113
[31] = system: Salmonella enterica subsp. enterica serovar Enteritidis MH91989
[32] = system: Escherichia coli MC1041
[33] = system: Escherichia coli JJ2489
[34] = system: Salmonella typhimurium SL1344
[35] = system: Escherichia coli JW0013
[36] = system: Escherichia coli JW2778 ΔygdD
[37] = system: Escherichia coli JW0368 ΔsbmA

Structure (SMILES): CC[C@H](C)[C@H](NC(=O)[C@H](C)NC(=O)[C@H](Cc1cnc[nH]1)NC(=O)[C@@H]1CCCN1C(=O)[C@@H](NC(=O)[C@H](CC(C)C)NC(=O)[C@H](CO)NC(=O)[C@H](Cc1ccccc1)NC(=O)[C@H](CC(C)C)NC(=O)[C@@H](N)Cc1ccccc1)[C@@H](C)CC)C(=O)N[C@@H](CO)C(=O)NCC(=O)N[C@@H](CC(C)C)C(=O)N[C@H](C(=O)N[C@@H](CO)C(=O)N[C@@H](C)C(=O)N[C@@H](Cc1ccccc1)C(=O)N[C@H](C=O)CCCCN)[C@@H](C)CC [FLFSLIPHAISGLISAFK]
MIC [1]: 16 µM (≈ 31.1 µg/mL)
MIC [2]: 8 µM (≈ 15.6 µg/mL)
MIC [3]: ≥ 250 µM

Structure (SMILES): CC[C@H](C)[C@H](NC(=O)[C@H](C)NC(=O)[C@@H]1CCCN1C(=O)[C@H](CC(C)C)NC(=O)[C@@H](N)Cc1ccccc1)C(=O)N[C@@H](C)C(=O)NCC(=O)N[C@@H](CC(C)C)C(=O)N[C@@H](C)C(=O)N[C@@H](C)C(=O)N[C@@H](CCCCN)C(=O)N[C@@H](Cc1ccccc1)C(=O)N[C@@H](CC(C)C)C(=O)N1CCC[C@H]1C(=O)N[C@@H](CCCCN)C(=O)N[C@H](C(=O)N[C@@H](Cc1ccccc1)C(=O)N[C@H]1CSSC[C@@H](C(=O)O)NC(=O)[C@H](CCCCN)NC(=O)[C@H](CCCCN)NC(=O)[C@H]([C@@H](C)O)NC(=O)[C@H]([C@@H](C)CC)NC(=O)[C@H](C)NC1=O)[C@@H](C)CC [FLPAIAGLAAKFLPKIFCAITKKC]
MIC [1]: 3.12 µM (≈ 8 µg/mL)
MIC [2]: 3.12 µM (≈ 8 µg/mL)
MIC [3]: 12.5 µM (≈ 32 µg/mL)

Structure (SMILES): CC[C@H](C)[C@H](NC(=O)[C@H](CCCCN)NC(=O)[C@@H]1CCCN1C(=O)[C@H](CC(C)C)NC(=O)[C@H](Cc1ccccc1)NC(=O)[C@H](CC(N)=O)NC(=O)[C@H](C)NC(=O)[C@H](C)NC(=O)[C@H](CC(C)C)NC(=O)CNC(=O)[C@H](C)NC(=O)[C@H](CC(C)C)NC(=O)[C@H](CC(C)C)NC(=O)[C@@H]1CCCN1C(=O)[C@H](CC(C)C)NC(=O)[C@@H](N)Cc1ccccc1)C(=O)N[C@@H](Cc1ccccc1)C(=O)N[C@@H](CS)C(=O)N[C@@H](CCCCN)C(=O)N[C@H](C(=O)N[C@H](C(=O)N[C@@H](CCCN=C(N)N)C(=O)N[C@@H](CCCCN)C(=O)N[C@@H](CS)C(N)=O)[C@@H](C)O)[C@@H](C)CC [FLPLLAGLAANFLPKIFCKITRKC]
MIC [4]: 2.33 µM (≈ 6.25 µg/mL)
MIC [5]: 1.16 µM (≈ 3.12 µg/mL)
MIC [6]: 2.33 µM (≈ 6.25 µg/mL)
MIC [7]: 2.33 µM (≈ 6.25 µg/mL)
MIC [8]: 1.16 µM (≈ 3.12 µg/mL)
MIC [9]: 1.16 µM (≈ 3.12 µg/mL)
MIC [10]: ≥ 37.3 µM

Structure (SMILES): CC[C@H](C)[C@H](N)C(=O)N[C@@H](Cc1cnc[nH]1)C(=O)N[C@@H](Cc1cnc[nH]1)C(=O)N[C@H](C(=O)N[C@@H](Cc1cnc[nH]1)C(=O)N[C@@H](Cc1cnc[nH]1)C(=O)N[C@H](C(=O)N[C@H](C(=O)N[C@@H](Cc1cnc[nH]1)C(=O)N[C@@H](Cc1cnc[nH]1)C(=O)N[C@H](C(=O)N[C@@H](Cc1cnc[nH]1)C(=O)N[C@@H](Cc1cnc[nH]1)C(=O)N[C@H](C(=O)N[C@H](C(=O)N[C@@H](Cc1cnc[nH]1)C(=O)N[C@@H](Cc1cnc[nH]1)C(=O)N[C@H](C(=O)N[C@@H](Cc1cnc[nH]1)C(=O)N[C@@H](Cc1cnc[nH]1)C(=O)N[C@H](C(=O)N[C@H](C(=O)N[C@@H](Cc1cnc[nH]1)C(=O)N[C@@H](Cc1cnc[nH]1)C(=O)N[C@H](C(=O)N[C@@H](Cc1cnc[nH]1)C(=O)N[C@@H](Cc1cnc[nH]1)C(=O)N[C@H](C(N)=O)[C@@H](C)CC)[C@@H](C)CC)[C@@H](C)CC)[C@@H](C)CC)[C@@H](C)CC)[C@@H](C)CC)[C@@H](C)CC)[C@@H](C)CC)[C@@H](C)CC)[C@@H](C)CC)[C@@H](C)CC [IHHIHHIIHHIHHIIHHIHHIIHHIHHI]
MIC [11]: > 64 µM
MIC [12]: > 64 µM
MIC [13]: 2 µM (≈ 7.14 µg/mL)
MIC [14]: > 64 µM
MIC [15]: ≥ 64 µM
MIC [16]: > 64 µM
MIC [17]: ≥ 64 µM
MIC [18]: ≥ 64 µM
MIC [19]: 8 µM (≈ 28.6 µg/mL)
MIC [20]: ≥ 64 µM

Continued, in another order:

MIC [11]: 32 µM and 64 µM
MIC [12]: > 64 µM
MIC [14]: > 64 µM
MIC [15]: 8 µM (≈ 14.3 µg/mL)
MIC [16]: > 64 µM
MIC [18]: 4 µM (≈ 7.17 µg/mL)
MIC [19]: 1 µM (≈ 1.79 µg/mL)
MIC [20]: ≥ 64 µM
Structure (SMILES): CC[C@H](C)[C@H](N)C(=O)N[C@@H](Cc1cnc[nH]1)C(=O)N[C@@H](Cc1cnc[nH]1)C(=O)N[C@H](C(=O)N[C@@H](Cc1cnc[nH]1)C(=O)N[C@@H](Cc1cnc[nH]1)C(=O)N[C@H](C(=O)N[C@H](C(=O)N[C@@H](Cc1cnc[nH]1)C(=O)N[C@@H](Cc1cnc[nH]1)C(=O)N[C@H](C(=O)N[C@@H](Cc1cnc[nH]1)C(=O)N[C@@H](Cc1cnc[nH]1)C(=O)N[C@H](C(N)=O)[C@@H](C)CC)[C@@H](C)CC)[C@@H](C)CC)[C@@H](C)CC)[C@@H](C)CC [IHHIHHIIHHIHHI]
MIC [13]: ≥ 64 µM

MIC [21]: 1.56 µM (≈ 2.33 µg/mL)
MIC [22]: > 25 µM
MIC [23]: > 25 µM
MIC [24]: 25 µM (≈ 37.3 µg/mL)
Structure (SMILES): CC(C)C[C@H](NC(=O)[C@H](CC(C)C)NC(=O)[C@H](CCCCN)NC(=O)[C@H](CC(C)C)NC(=O)CNC(=O)[C@H](CC(C)C)NC(=O)[C@H](CCCCN)NC(=O)[C@H](CC(C)C)NC(=O)[C@H](CC(C)C)NC(=O)[C@H](CC(C)C)NC(=O)[C@H](CCCCN)NC(=O)[C@H](CC(C)C)NC(=O)[C@@H](N)CCCCN)C(N)=O [KLKLLLKLGLKLL]

MIC [22]: 6.2 µM (≈ 7.89 µg/mL)
MIC [25]: 12.5 µM (≈ 15.9 µg/mL)
MIC [24]: 4.38 µM (≈ 5.58 µg/mL)
MIC [26]: 8.8 µM (≈ 11.2 µg/mL)
MIC [27]: 4.38 µM (≈ 5.58 µg/mL)
MIC [28]: ≥ 50 µM
Structure (SMILES): CC[C@H](C)[C@H](NC(=O)[C@H](CCCCN)NC(=O)[C@@H](N)CCCN=C(N)N)C(=O)N[C@@H](Cc1c[nH]c2ccccc12)C(=O)N[C@@H](Cc1c[nH]c2ccccc12)C(=O)N[C@@H](Cc1c[nH]c2ccccc12)C(=O)N[C@@H](Cc1c[nH]c2ccccc12)C(=O)N[C@@H](CC(C)C)C(N)=O [RKIWWWWL]

MIC [29]: 0.12 µM (≈ 0.242 µg/mL)
MIC [30]: 0.06 µM (≈ 0.121 µg/mL)
MIC [31]: 0.157 µM (≈ 0.317 µg/mL)
MIC [32]: 0.06 µM (≈ 0.121 µg/mL)
MIC [33]: 0.12 µM (≈ 0.242 µg/mL)
MIC [34]: 0.12 µM (≈ 0.242 µg/mL)
MIC [35]: 0.06 µM (≈ 0.121 µg/mL)
MIC [36]: 0.12 µM (≈ 0.242 µg/mL)
MIC [37]: 0.06 µM (≈ 0.121 µg/mL)
Structure (SMILES): CC[C@H](C)[C@H](NC(=O)[C@H](CCCN=C(N)N)NC(=O)[C@@H](N)CCCN=C(N)N)C(=O)N[C@@H](CCCCN)C(=O)N1CCC[C@H]1C(=O)N[C@@H](CCCN=C(N)N)C(=O)N1CCC[C@H]1C(=O)N1CCC[C@H]1C(=O)N[C@@H](CCCN=C(N)N)C(=O)N[C@@H](CC(C)C)C(=O)N1CCC[C@H]1C(=O)N[C@@H](CCCN=C(N)N)C(=O)N1CCC[C@H]1C(=O)N[C@@H](CCCN=C(N)N)C(=O)N1CCC[C@H]1C(=O)N[C@@H](CCCCN)C(=O)O [RRIKPRPPRLPRPRPK]
